The target in test [1] is T1, Signal transducer and activator of transcription 5A (Homo sapiens, UniProt P42229).
T1 sequence (P42229 whole entry): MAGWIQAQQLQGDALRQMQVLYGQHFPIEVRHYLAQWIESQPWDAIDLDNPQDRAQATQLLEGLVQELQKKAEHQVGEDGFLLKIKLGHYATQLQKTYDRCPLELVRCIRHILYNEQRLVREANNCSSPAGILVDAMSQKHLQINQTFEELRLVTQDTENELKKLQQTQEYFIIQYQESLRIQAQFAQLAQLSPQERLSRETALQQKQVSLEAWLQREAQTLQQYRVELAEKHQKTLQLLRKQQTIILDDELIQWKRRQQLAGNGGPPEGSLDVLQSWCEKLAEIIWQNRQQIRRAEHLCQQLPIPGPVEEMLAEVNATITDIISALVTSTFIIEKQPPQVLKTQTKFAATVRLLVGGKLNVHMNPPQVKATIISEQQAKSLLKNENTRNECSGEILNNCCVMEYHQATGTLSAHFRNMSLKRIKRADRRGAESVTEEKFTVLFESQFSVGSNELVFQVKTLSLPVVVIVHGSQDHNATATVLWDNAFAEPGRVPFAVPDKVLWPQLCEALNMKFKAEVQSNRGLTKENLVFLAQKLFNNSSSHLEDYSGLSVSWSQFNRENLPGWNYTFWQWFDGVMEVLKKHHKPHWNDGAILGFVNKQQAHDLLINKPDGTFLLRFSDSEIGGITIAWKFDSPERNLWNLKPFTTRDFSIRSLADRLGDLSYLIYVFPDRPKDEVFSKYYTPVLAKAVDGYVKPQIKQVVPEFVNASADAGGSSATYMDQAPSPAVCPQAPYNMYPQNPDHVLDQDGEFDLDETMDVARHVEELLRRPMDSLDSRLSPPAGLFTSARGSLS
The experiment in a line: Inhibition of Stat5 phosphorylation in human HEL cells after 1 hr by Western blotting.

Test [2] concerns the target T2, Signal transducer and activator of transcription 3 (Homo sapiens, UniProt P40763). The experiment in a line: Inhibition of Stat3 phosphorylation in human HEL cells after 1 hr by Western blotting.
The target of test [3] is T1, Signal transducer and activator of transcription 5A. The experiment in a line: Inhibition of Stat5 phosphorylation in human SET2 cells after 1 hr by Western blotting. On the technique in general: A western blot detects proteins with antibodies after separation by electrophoresis.
In test [4] the target is T2, Signal transducer and activator of transcription 3. The test is described as follows: Inhibition of Stat3 phosphorylation in human SET2 cells after 1 hr by Western blotting.

Consider one molecule from BindingDB's records for doi:10.1021/jm1011319 (AstraZeneca, 2011).

T2 sequence (P40763 whole entry): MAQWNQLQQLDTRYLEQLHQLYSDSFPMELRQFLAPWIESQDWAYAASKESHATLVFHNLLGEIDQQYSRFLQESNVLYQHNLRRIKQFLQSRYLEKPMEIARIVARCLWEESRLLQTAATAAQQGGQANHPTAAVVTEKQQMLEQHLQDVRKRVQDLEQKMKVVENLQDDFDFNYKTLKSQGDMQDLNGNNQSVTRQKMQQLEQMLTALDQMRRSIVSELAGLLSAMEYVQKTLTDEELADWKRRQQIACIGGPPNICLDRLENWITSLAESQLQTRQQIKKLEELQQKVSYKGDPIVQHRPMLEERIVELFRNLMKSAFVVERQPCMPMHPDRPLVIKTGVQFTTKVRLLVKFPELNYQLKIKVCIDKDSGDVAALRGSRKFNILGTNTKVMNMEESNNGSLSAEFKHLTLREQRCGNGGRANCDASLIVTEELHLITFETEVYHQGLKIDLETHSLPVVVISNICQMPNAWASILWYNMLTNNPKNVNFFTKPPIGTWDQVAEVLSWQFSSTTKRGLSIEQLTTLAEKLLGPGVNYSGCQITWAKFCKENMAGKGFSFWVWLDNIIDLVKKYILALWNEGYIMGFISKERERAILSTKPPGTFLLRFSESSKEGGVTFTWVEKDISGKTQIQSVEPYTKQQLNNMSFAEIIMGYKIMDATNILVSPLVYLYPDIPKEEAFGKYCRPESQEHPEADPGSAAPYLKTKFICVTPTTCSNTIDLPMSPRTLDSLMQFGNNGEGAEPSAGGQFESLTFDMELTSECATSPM

The term IC50 denotes the concentration needed to halve the response being measured. Higher therefore signals weaker potency. Consider `Cc1cc(Nc2nc(N[C@@H](C)c3ncc(F)cn3)ncc2Cl)[nH]n1` [5-Chloro-N2-[(1S)-1-(5-fluoropyrimidin-2-yl)ethyl]-N4-(5-methyl-1H-pyrazol-3-yl)pyrimidine-2,4-diamine], for which the IC50 in test [1] was 0.041 µM; in test [2] it was 0.08 µM; in test [3], 0.025 µM; in test [4], 0.023 µM.
